From patent publication US11306306B1, “Selective degradation of proteins” (SyntheX, Inc., priority 2019, dated 2022)

Legend:
[1] = tested on: aggressive adherent cancer cell lines (e.g. HeLa, A431, T47D, MCF7, MDA-MB-231); settings: several aggressive adherent cancer cell lines (e.g. HeLa, A431, T47D, MCF7, MDA-MB-231); cited from earlier work
[2] = tested on: TIR1 bridged to plant protein (AXR) fused to a TetR DBD and an AD; test: Positive readout high throughput screen for bridging agents, death agent, 96 well plate growth (OD600), E3 ligase TIR1; format: cell-based, Saccharomyces cerevisiae; settings: 10 uM, quadruplicate wells, 30° C., final timepoint 48 hrs
Experimental: In another example, cells expressing a heterologous E3 ligase, in this case TIR1, were assayed for survival to discover bridging agents that can bridge TIR1 to the bait and lead to degradation, thereby enabling cell growth (schematic shown in FIG. 10A). The target was a plant protein (AXR) that is ubiquitinated and degraded in response to Indol Acetic Acid fused to a TetR DBD and an AD. Cells containing the E3 ligases and the death agent were mated to cells containing the target. The mated cells were then aliquoted into a 96 well plate at a starting OD600=0.05. In this example, various compounds were used in quadruplicate wells at a concentration of 10 uM, and plated cells starting at OD600=0.05 (with the border wells on each side kept as negative controls). Plates were incubated at 30° C. with shaking and continuously monitored for growth using OD600 in a Cytation 1 instrument.

[3] = tested on: COI1b bridged to plant protein (AXR) fused to a TetR DBD and an AD; test: Positive readout screen for bridging agents, death agent, 96 well plate growth (OD600), E3 ligase COI1b; format: cell-based, S. cerevisiae; settings: duplicate wells, 30° C., final timepoint 84 hrs
Experimental: In yet another example, cells expressing a heterologous E3 ligase, in this case COI1b, were assayed for survival to discover bridging agents that can bridge COI1b to the bait and lead to degradation, thereby enabling cell growth (as shown in FIG. 11A). S. cerevisiae cells were modified to minimize drug efflux by deletion of drug efflux pumps and transcription factors encoding for their expression as previously described (Chinen, 2011). The target used was a plant protein (AXR) that is ubiquitinated and degraded in response to Jasmonate-isoleucine fused to a TetR DBD and an AD. Cells containing the E3 ligases and the death agents were mated to cells containing the target. The mated cells were then aliquoted into a 96 well plate at a starting OD600=0.05. Various compounds were tested in duplicate wells at a concentration gradient down from 100 uM. […] Plates were incubated at 30° C. with shaking and continuously monitored for growth using OD600 in a Cytation 1 instrument.

## Gymnopeptide B [GymB]
[1]
  IC50 values: low nanomolar range

## O=C(O)Cc1ccccc1 [PAA]
[2]
  cell growth (OD600): bridging TIR1 to the bait, leading to degradation: functional bridging agents

## CC[C@H]1C=C(C(=O)N[C@@]2(C(=O)O)C[C@@H]2CC)[C@H]2CCC(=O)[C@H]2C1 [coronatine]
[3]; 50 uM (wells G8/9)
  cell growth (OD600): bridging COI1b to the bait, leading to degradation: exhibited cell growth
[3]; 75 uM (wells F8/9)
  cell growth (OD600): bridging COI1b to the bait, leading to degradation: exhibited cell growth
[3]; 100 uM (wells E8/9)
  cell growth (OD600): bridging COI1b to the bait, leading to degradation: exhibited cell growth

## Gymnopeptide A [GymA]
[1]
  IC50 values: low nanomolar range
